Laboratory results taken from PubChem BioAssay (NCI).
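Where inhibition never reached the appropriate level, the endpoint shown equals the highest concentration tested. Otherwise, values were interpolated linearly from a five-concentration, 48-hour dose response in 96-well plates. TGI denotes the concentration required for complete inhibition of growth.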

What was measured:
Assay in all cases: inhibition of tumour cell growth, NCI panel, 48 h
786-0 renal = system: 786-0 renal
A498 renal = system: A498 renal
A549 NSCLC = system: A549 NSCLC
ACHN renal = system: ACHN renal
CAKI-1 renal = system: CAKI-1 renal
CCRF-CEM leukemia = system: CCRF-CEM leukemia
COLO 205 colon = system: COLO 205 colon
DU-145 prostate = system: DU-145 prostate
EKVX NSCLC = system: EKVX NSCLC
HCC-2998 colon = system: HCC-2998 colon
HCT-116 colon = system: HCT-116 colon
HCT-15 colon = system: HCT-15 colon
HL-60(TB) leukemia = system: HL-60(TB) leukemia
HOP-62 NSCLC = system: HOP-62 NSCLC
HOP-92 NSCLC = system: HOP-92 NSCLC
HS 578T breast = system: HS 578T breast
HT29 colon = system: HT29 colon
IGROV1 ovarian = system: IGROV1 ovarian
K-562 leukemia = system: K-562 leukemia
KM12 colon = system: KM12 colon
LOX IMVI melanoma = system: LOX IMVI melanoma
M14 melanoma = system: M14 melanoma
MALME-3M melanoma = system: MALME-3M melanoma
MCF7 breast = system: MCF7 breast
MDA-MB-231 breast = system: MDA-MB-231 breast
MDA-MB-435 = system: MDA-MB-435
MDA-N = system: MDA-N
MOLT-4 leukemia = system: MOLT-4 leukemia
NCI-H226 lung = system: NCI-H226 lung
NCI-H23 lung = system: NCI-H23 lung
NCI-H460 lung = system: NCI-H460 lung
NCI-H522 lung = system: NCI-H522 lung
NCI/ADR-RES ovarian = system: NCI/ADR-RES ovarian
OVCAR-3 ovarian = system: OVCAR-3 ovarian
OVCAR-4 ovarian = system: OVCAR-4 ovarian
OVCAR-5 ovarian = system: OVCAR-5 ovarian
OVCAR-8 ovarian = system: OVCAR-8 ovarian
PC-3 prostate = system: PC-3 prostate
RPMI-8226 leukemia = system: RPMI-8226 leukemia
RXF 393 renal = system: RXF 393 renal
SF-268 CNS = system: SF-268 CNS
SF-295 CNS = system: SF-295 CNS
SF-539 CNS = system: SF-539 CNS
SK-MEL-2 melanoma = system: SK-MEL-2 melanoma
SK-MEL-28 melanoma = system: SK-MEL-28 melanoma
SK-MEL-5 melanoma = system: SK-MEL-5 melanoma
SK-OV-3 ovarian = system: SK-OV-3 ovarian
SN12C renal = system: SN12C renal
SNB-19 CNS = system: SNB-19 CNS
SNB-75 CNS = system: SNB-75 CNS
SR leukemia = system: SR leukemia
SW-620 colon = system: SW-620 colon
T-47D breast = system: T-47D breast
TK-10 renal = system: TK-10 renal
U251 CNS = system: U251 CNS
UACC-257 melanoma = system: UACC-257 melanoma
UACC-62 melanoma = system: UACC-62 melanoma
UO-31 renal = system: UO-31 renal
BT-549 breast = system: BT-549 breast

What does the source list for CC(=O)OC1CC2CC(=O)CC1N2C (stereo unspecified)?
TGI (786-0 renal): > 100 µM; TGI (A498 renal): > 100 µM; TGI (A549 NSCLC): > 100 µM; TGI (ACHN renal): > 100 µM; TGI (CAKI-1 renal): > 100 µM; TGI (CCRF-CEM leukemia): > 100 µM; TGI (COLO 205 colon): > 100 µM; TGI (DU-145 prostate): > 100 µM; TGI (EKVX NSCLC): > 100 µM; TGI (HCC-2998 colon): > 100 µM; TGI (HCT-116 colon): > 100 µM; TGI (HCT-15 colon): > 100 µM; TGI (HL-60(TB) leukemia): > 100 µM; TGI (HOP-62 NSCLC): > 100 µM; TGI (HOP-92 NSCLC): > 100 µM; TGI (HS 578T breast): > 100 µM; TGI (HT29 colon): > 100 µM; TGI (IGROV1 ovarian): > 100 µM; TGI (K-562 leukemia): > 100 µM; TGI (KM12 colon): > 100 µM; TGI (LOX IMVI melanoma): > 100 µM; TGI (M14 melanoma): > 100 µM; TGI (MALME-3M melanoma): > 100 µM; TGI (MCF7 breast): > 100 µM; TGI (MDA-MB-231 breast): > 100 µM; TGI (MDA-MB-435): > 100 µM; TGI (MDA-N): > 100 µM; TGI (MOLT-4 leukemia): > 100 µM; TGI (NCI-H226 lung): > 100 µM; TGI (NCI-H23 lung): > 100 µM; TGI (NCI-H460 lung): > 100 µM; TGI (NCI-H522 lung): > 100 µM; TGI (NCI/ADR-RES ovarian): > 100 µM; TGI (OVCAR-3 ovarian): > 100 µM; TGI (OVCAR-4 ovarian): > 100 µM; TGI (OVCAR-5 ovarian): > 100 µM; TGI (OVCAR-8 ovarian): > 100 µM; TGI (PC-3 prostate): > 100 µM; TGI (RPMI-8226 leukemia): > 100 µM; TGI (RXF 393 renal): > 100 µM; TGI (SF-268 CNS): > 100 µM; TGI (SF-295 CNS): > 100 µM; TGI (SF-539 CNS): > 100 µM; TGI (SK-MEL-2 melanoma): > 100 µM; TGI (SK-MEL-28 melanoma): > 100 µM; TGI (SK-MEL-5 melanoma): > 100 µM; TGI (SK-OV-3 ovarian): > 100 µM; TGI (SN12C renal): > 100 µM; TGI (SNB-19 CNS): > 100 µM; TGI (SNB-75 CNS): > 100 µM; TGI (SR leukemia): > 100 µM; TGI (SW-620 colon): > 100 µM; TGI (T-47D breast): > 100 µM; TGI (TK-10 renal): > 100 µM; TGI (U251 CNS): > 100 µM; TGI (UACC-257 melanoma): > 100 µM; TGI (UACC-62 melanoma): > 100 µM; TGI (UO-31 renal): > 100 µM

How did the TGI (786-0 renal) turn out when O=C1c2ccccc2-c2nc(-c3ccncc3)cc3c2c1nc1ccccc13 was run?
The TGI was > 100 µM.

What about the TGI (A549 NSCLC) of the same compound?
The TGI was 40.2 µM.

And the TGI (ACHN renal)?
The TGI was > 100 µM.

And the TGI (BT-549 breast)?
The TGI was > 100 µM.

What about the TGI (CAKI-1 renal) of the same compound?
Its TGI is > 100 µM.

And the TGI (CCRF-CEM leukemia)?
The TGI was > 100 µM.

What about the TGI (COLO 205 colon) of the same compound?
The TGI was 62.3 µM.

And the TGI (DU-145 prostate)?
Its TGI is 32.3 µM.

What about the TGI (EKVX NSCLC) of the same compound?
Its TGI is > 100 µM.

And the TGI (HCC-2998 colon)?
The TGI was 42.9 µM.

What about the TGI (HCT-116 colon) of the same compound?
Its TGI is > 100 µM.

What about the TGI (HCT-15 colon) of the same compound?
The TGI was > 100 µM.

And the TGI (HL-60(TB) leukemia)?
Its TGI is 34.5 µM.

And the TGI (HOP-62 NSCLC)?
Its TGI is 25.3 µM.

What about the TGI (HOP-92 NSCLC) of the same compound?
The TGI was > 100 µM.

What about the TGI (HT29 colon) of the same compound?
The TGI was > 100 µM.

And the TGI (IGROV1 ovarian)?
The TGI was 52.8 µM.

What about the TGI (K-562 leukemia) of the same compound?
Its TGI is > 100 µM.

What about the TGI (KM12 colon) of the same compound?
Its TGI is 47.7 µM.

And the TGI (LOX IMVI melanoma)?
The TGI was > 100 µM.

What about the TGI (M14 melanoma) of the same compound?
Its TGI is 17 µM.

What about the TGI (MALME-3M melanoma) of the same compound?
The TGI was 22.4 µM.

What about the TGI (MCF7 breast) of the same compound?
The TGI was > 100 µM.

And the TGI (MDA-MB-231 breast)?
Its TGI is > 100 µM.

What about the TGI (MDA-MB-435) of the same compound?
The TGI was 29.5 µM.

What about the TGI (MDA-N) of the same compound?
The TGI was 41.9 µM.

And the TGI (MOLT-4 leukemia)?
The TGI was 44.4 µM.

And the TGI (NCI-H226 lung)?
The TGI was > 100 µM.

And the TGI (NCI-H23 lung)?
Its TGI is 41.3 µM.

And the TGI (NCI-H460 lung)?
The TGI was 90.9 µM.

What about the TGI (NCI-H522 lung) of the same compound?
Its TGI is 30.7 µM.

And the TGI (NCI/ADR-RES ovarian)?
Its TGI is > 100 µM.

And the TGI (OVCAR-3 ovarian)?
The TGI was 12.8 µM.

And the TGI (OVCAR-4 ovarian)?
Its TGI is > 100 µM.

What about the TGI (OVCAR-5 ovarian) of the same compound?
Its TGI is > 100 µM.

What about the TGI (OVCAR-8 ovarian) of the same compound?
Its TGI is > 100 µM.

And the TGI (PC-3 prostate)?
Its TGI is > 100 µM.

And the TGI (RPMI-8226 leukemia)?
Its TGI is > 100 µM.

And the TGI (SF-295 CNS)?
Its TGI is 29.5 µM.

What about the TGI (SF-539 CNS) of the same compound?
The TGI was > 100 µM.

What about the TGI (SK-MEL-2 melanoma) of the same compound?
The TGI was 26.3 µM.

What about the TGI (SK-MEL-28 melanoma) of the same compound?
The TGI was > 100 µM.

And the TGI (SK-OV-3 ovarian)?
Its TGI is > 100 µM.

And the TGI (SN12C renal)?
Its TGI is > 100 µM.

And the TGI (SNB-19 CNS)?
Its TGI is > 100 µM.

What about the TGI (SNB-75 CNS) of the same compound?
Its TGI is > 100 µM.

What about the TGI (SR leukemia) of the same compound?
Its TGI is 44.8 µM.

And the TGI (SW-620 colon)?
The TGI was > 100 µM.

And the TGI (TK-10 renal)?
The TGI was > 100 µM.

What about the TGI (U251 CNS) of the same compound?
The TGI was 33.2 µM.

What about the TGI (UACC-257 melanoma) of the same compound?
Its TGI is 47.3 µM.

And the TGI (UACC-62 melanoma)?
The TGI was 26.2 µM.

What about the TGI (UO-31 renal) of the same compound?
Its TGI is > 100 µM.
